Assay results: patent publication US8470804B2, “11a, 12-derivatives of tetracycline compounds” (Paratek Pharmaceuticals, Inc., priority 2005, dated 2013)

How the values were obtained:
EAE induced mice = test: In vivo experimental autoimmune encephalomyelitis (EAE) murine model; parameters: species or system C57BL/6 female mice; conditions: IP injections 50 mg/kg each day from day 10 (onset of disease); minocycline control at same dose
Method: In this example, a mouse model was used to determine the ability of the tetracycline compounds to treat demyelination related diseases. Other models which can be used are described in Brundula V. et al. Brain 2002 June; 125 (Pt 6): 1297-308 and Popovic N. et al. Ann Neural. 2002 February; 51(2):215-23.
To induce EAE, 6 week old C57BL/6 female mice were injected subcutaneously with 200 ug of myelin oligodendrocyte glycoprotein peptide (MOG 35-55) emulsified in 200 μL of complete Freund's adjuvant containing an additional 4 mg/mL of heat killed M. tuberculosis. Mice were additionally injected intravenously (tail vein) with 150 ng of lyophilized pertussis toxin resuspended in 150 μL PBS at time 0 and again 48 hours later. In this model, the mice developed progressive posterior to anterior advancing paralysis with symptoms first appearing at 10-12 days and progressing to severe paralysis by approximately 21 days. Severity of EAE was scored daily according to the following criteria: 0, healthy; 1, limp tail; 2, partial paralysis of one or two hind limbs; 3, complete paralysis of the hind limbs; 4, complete hind limb paralysis and forelimb paraparesis; 5, moribund. All test experiments included control groups of EAE induced mice treated with vehicle only or treated with minocycline, with 10 mice per group. […]

common bacteria = test: In vitro minimum inhibitory concentration (MIC) assay; format: cell-based, E. coli, S. aureus, Enterococcus sp.; conditions: broth microdilution in CAMHB, 35° C., approximately 18 hours
Method: The following assay was used to determine the efficacy of tetracycline compounds against common bacteria. 2 mg of each compound were dissolved in 100 μl of DMSO. […] The tetracycline compound solutions were diluted to 50 μl, volumes, with a test compound concentration of 0.098 μg/ml. Optical density (OD) determinations were made from fresh log-phase broth cultures of the test strains. Dilutions were made to achieve a final cell density of 1×10^6 CFU/ml. At OD=1, cell densities for different genera were approximately: [table] 50 μl of the cell suspensions were added to each well of microtiter plates. The final cell density should be approximately 5×10^5 CFU/ml. These plates are incubated at 35° C. in an ambient air incubator for approximately 18 hours. The plates are read with a microplate reader and are visually inspected when necessary. The MIC was defined as the lowest concentration of the tetracycline compound that inhibits growth.

| antibacterial activity (MIC) (common bacteria) | SMILES | activity in EAE model (severity of EAE scored daily 0-5) compared with minocycline (EAE induced mice) |
| --- | --- | --- |
|  | CNC1C2C(=O)c3c(O)cccc3[C@H](C)[C@H]2[C@H](O)[C@H]2[C@H](N(C)C)C(O)=C(C(N)=O)C(=O)[C@@]12O (stereo partly drawn) [12-methylamino-12-dehydrodoxycycline, (4S,4aR,5S,5aR,6R,12aS)-4-Dimethylamino-3,5,10,12a-tetrahydroxy-6-methyl-12-methylamino-1,11-dioxo-1,4,4a,5,5a,6,11,11a,12,12a-decahydro-naphthacene-2-carboxylic acid amide] | activity similar to or better than minocycline |
| low antibacterial activity | C[C@H]1c2cccc(O)c2C(=O)C2=C[C@]3(O)C(=O)C(C(N)=O)=C(O)[C@@H](N(C)C)[C@@H]3[C@@H](O)[C@@H]21 [12-dehydrodoxycycline, (4S,4aR,5S,5aR,6R,12aR)-4-Dimethylamino-3,5,10,12a-tetrahydroxy-6-methyl-1,11-dioxo-1,4,4a,5,5a,6,11,12a-octahydro-naphthacene-2-carboxylic acid amide] | activity similar to or better than minocycline |
| low antibacterial activity | C[C@H]1c2ccc(N(C)C)c(O)c2C(=O)C2=C[C@]3(O)C(=O)C(C(N)=O)=C(O)[C@@H](N(C)C)[C@@H]3[C@@H](O)[C@@H]21 [9-bis-dimethylamino-12-dehydrodoxycline, (4S,4aR,5S,5aR,6R,12aR)-4,9-Bis-dimethylamino-3,5,10,12a-tetrahydroxy-6-methyl-1,11-dioxo-1,4,4a,5,5a,6,11,12a-octahydro-naphthacene-2-carboxylic acid amide] |  |
| low antibacterial activity | C[C@H]1c2ccc(N)c(O)c2C(=O)C2=C[C@]3(O)C(=O)C(C(N)=O)=C(O)[C@@H](N(C)C)[C@@H]3[C@@H](O)[C@@H]21 [9-Amino-12-dehydrodoxycline, (4S,4aR,5S,5aR,6R,12aR)-9-Amino-4-dimethylamino-3,5,10,12a-tetrahydroxy-6-methyl-1,11-dioxo-1,4,4a,5,5a,6,11,12a-octahydro-naphthacene-2-carboxylic acid amide] |  |
